According to ChEMBL document CHEMBL1156029, “The discovery of thienopyridine analogues as potent IkappaB kinase beta inhibitors. Part II” (Bioorg Med Chem Lett, 2009):
Activity calls are given as the source filed them. No cut-off for these calls is given here.

Assays:
[1] = target: Platelet-derived growth factor receptor alpha (Homo sapiens, UniProt P16234); assay: Inhibition of PDGFRalpha
[2] = target: Cyclin-dependent kinase 2/cyclin A (Homo sapiens) (UniProt P24941+P20248+P78396); assay: Inhibition of CDK2/cyclin A at 10 uM; format: protein-complex assay
[3] = target: Dual specificity mitogen-activated protein kinase kinase 1 (Homo sapiens) (UniProt Q02750); assay: Inhibition of MKK1 at 10 uM
Dual specificity mitogen-activated protein kinase kinase 1 (Homo sapiens), sequence (Q02750 whole entry): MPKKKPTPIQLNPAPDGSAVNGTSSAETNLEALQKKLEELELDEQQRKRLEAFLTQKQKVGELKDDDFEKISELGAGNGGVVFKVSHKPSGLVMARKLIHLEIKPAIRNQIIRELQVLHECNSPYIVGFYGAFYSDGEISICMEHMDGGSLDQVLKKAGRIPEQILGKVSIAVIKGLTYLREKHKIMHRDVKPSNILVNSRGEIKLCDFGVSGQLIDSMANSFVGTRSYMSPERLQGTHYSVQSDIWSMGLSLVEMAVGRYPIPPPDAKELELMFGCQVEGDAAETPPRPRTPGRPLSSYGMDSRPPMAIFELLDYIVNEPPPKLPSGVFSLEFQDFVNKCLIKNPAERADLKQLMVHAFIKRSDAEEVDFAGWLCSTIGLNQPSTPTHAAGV

[4] = target: Glycogen synthase kinase-3 beta (Homo sapiens) (UniProt P49841); assay: Inhibition of GSK3-beta at 10 uM
Glycogen synthase kinase-3 beta (Homo sapiens), sequence (P49841 whole entry, looked up): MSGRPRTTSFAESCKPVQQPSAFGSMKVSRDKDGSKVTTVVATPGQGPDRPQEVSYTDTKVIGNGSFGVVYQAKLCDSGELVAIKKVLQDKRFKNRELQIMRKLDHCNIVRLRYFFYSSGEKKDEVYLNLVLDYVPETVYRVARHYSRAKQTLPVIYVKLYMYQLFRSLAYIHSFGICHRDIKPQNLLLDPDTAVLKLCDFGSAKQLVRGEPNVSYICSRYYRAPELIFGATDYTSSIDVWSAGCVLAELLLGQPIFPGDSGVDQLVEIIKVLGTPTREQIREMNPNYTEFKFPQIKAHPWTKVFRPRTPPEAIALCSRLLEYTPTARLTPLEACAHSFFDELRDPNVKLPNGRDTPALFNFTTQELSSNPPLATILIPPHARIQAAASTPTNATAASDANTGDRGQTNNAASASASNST

[5] = target: High affinity nerve growth factor receptor (Homo sapiens, UniProt P04629); assay: Inhibition of TrkA
High affinity nerve growth factor receptor, sequence (P04629 whole entry): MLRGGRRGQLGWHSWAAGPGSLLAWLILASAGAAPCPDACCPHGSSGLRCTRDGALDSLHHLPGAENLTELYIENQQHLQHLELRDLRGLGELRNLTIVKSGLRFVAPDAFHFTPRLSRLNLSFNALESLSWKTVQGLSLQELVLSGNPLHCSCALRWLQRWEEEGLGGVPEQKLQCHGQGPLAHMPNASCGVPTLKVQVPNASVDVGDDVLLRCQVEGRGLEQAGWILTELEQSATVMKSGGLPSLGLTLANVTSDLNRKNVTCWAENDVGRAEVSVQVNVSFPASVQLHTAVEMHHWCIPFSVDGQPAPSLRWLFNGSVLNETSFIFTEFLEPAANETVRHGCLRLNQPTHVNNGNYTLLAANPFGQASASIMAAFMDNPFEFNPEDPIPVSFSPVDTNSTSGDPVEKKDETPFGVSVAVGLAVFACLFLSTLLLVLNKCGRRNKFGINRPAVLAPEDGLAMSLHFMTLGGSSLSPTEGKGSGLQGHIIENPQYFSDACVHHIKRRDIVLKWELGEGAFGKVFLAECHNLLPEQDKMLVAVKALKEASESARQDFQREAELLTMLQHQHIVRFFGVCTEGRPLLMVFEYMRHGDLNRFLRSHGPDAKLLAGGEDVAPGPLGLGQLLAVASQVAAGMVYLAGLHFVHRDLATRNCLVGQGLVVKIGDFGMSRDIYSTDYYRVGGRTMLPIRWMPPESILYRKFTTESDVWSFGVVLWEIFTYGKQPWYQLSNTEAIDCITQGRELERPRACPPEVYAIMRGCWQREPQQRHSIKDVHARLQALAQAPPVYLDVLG

[6] = Inhibition of PP2a at 10 uM
[7] = target: Tyrosine-protein kinase Lyn (Homo sapiens, UniProt P07948); assay: Inhibition of Lyn
Tyrosine-protein kinase Lyn, sequence (P07948 whole entry): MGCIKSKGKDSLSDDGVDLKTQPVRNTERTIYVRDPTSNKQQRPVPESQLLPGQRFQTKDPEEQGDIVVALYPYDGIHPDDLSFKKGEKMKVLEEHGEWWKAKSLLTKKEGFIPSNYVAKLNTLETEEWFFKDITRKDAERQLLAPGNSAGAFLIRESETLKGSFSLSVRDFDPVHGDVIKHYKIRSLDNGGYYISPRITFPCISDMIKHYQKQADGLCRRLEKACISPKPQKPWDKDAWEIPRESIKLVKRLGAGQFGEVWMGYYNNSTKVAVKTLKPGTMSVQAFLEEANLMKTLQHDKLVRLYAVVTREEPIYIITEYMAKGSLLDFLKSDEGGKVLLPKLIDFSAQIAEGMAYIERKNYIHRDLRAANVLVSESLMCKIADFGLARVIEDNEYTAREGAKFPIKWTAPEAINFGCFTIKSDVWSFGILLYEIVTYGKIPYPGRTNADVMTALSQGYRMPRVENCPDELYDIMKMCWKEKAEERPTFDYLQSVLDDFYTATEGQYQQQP

[8] = target: MAP kinase-activated protein kinase 2 (Homo sapiens) (UniProt P49137); assay: Inhibition of MAPKAP-K2 at 10 uM
MAP kinase-activated protein kinase 2 (Homo sapiens), sequence (P49137 whole entry, looked up): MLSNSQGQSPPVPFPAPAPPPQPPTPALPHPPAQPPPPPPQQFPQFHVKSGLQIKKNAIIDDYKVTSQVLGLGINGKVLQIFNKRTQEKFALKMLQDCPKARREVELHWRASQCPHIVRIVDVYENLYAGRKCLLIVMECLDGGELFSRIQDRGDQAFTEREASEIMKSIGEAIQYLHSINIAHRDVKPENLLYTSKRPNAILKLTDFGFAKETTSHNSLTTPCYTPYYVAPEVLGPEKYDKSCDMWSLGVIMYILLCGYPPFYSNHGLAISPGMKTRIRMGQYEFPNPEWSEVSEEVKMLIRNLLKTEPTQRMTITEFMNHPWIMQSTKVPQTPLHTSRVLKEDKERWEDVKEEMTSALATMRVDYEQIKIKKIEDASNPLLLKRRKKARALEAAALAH

Ephrin type-A receptor 2 = Ephrin type-A receptor 2 (Homo sapiens, UniProt P29317); assay: Inhibition of Eck
Ephrin type-A receptor 2, sequence (P29317 whole entry): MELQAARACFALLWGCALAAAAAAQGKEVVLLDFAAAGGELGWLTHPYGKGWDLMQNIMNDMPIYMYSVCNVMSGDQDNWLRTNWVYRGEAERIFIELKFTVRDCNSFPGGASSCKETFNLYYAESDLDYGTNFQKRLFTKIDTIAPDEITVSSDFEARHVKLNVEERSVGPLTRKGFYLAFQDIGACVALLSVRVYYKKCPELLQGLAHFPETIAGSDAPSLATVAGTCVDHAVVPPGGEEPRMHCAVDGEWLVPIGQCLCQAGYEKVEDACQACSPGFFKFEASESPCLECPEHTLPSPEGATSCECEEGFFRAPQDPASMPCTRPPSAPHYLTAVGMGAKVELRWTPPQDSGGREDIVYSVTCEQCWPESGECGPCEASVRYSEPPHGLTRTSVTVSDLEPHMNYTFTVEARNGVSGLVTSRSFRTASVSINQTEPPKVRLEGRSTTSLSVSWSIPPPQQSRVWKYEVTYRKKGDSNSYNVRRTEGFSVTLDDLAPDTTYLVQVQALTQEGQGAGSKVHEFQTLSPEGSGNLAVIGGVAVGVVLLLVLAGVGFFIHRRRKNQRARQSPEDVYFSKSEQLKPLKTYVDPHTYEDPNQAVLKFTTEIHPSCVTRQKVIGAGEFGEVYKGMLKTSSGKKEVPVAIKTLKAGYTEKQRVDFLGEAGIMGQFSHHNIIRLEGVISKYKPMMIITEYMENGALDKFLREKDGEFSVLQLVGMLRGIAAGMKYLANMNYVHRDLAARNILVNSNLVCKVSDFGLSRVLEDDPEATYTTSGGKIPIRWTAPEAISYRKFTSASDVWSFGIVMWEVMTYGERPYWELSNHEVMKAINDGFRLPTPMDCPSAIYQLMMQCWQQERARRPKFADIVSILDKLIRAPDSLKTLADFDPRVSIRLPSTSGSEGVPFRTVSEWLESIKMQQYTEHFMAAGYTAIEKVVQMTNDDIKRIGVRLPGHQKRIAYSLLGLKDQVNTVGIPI

[9] = target: T1, Inhibitor of nuclear factor kappa-B kinase subunit alpha (Homo sapiens, UniProt O15111); assay: Inhibition of IKKalpha
T1 sequence (O15111 whole entry): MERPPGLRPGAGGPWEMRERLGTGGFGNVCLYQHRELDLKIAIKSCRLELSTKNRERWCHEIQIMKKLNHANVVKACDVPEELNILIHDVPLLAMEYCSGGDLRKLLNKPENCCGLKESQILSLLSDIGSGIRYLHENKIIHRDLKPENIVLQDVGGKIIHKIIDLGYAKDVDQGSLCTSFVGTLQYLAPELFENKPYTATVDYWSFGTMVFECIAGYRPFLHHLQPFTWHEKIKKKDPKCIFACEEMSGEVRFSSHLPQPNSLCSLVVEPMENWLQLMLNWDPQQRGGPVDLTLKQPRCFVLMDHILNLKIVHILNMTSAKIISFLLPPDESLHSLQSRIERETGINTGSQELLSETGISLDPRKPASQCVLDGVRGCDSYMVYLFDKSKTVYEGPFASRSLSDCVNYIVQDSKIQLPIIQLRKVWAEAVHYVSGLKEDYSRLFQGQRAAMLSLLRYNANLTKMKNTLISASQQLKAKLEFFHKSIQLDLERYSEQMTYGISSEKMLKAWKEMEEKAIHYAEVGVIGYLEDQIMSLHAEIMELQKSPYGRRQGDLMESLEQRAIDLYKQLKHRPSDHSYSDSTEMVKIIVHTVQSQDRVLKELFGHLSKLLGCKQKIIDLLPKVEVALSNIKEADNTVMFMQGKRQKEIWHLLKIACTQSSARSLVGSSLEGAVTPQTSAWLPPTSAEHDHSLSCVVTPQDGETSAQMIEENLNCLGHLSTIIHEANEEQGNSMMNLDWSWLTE

[10] = target: T2, Mitogen-activated protein kinase 12 (Homo sapiens) (UniProt P53778); assay: Inhibition of p38-gamma at 10 uM
T2 sequence (whole entry): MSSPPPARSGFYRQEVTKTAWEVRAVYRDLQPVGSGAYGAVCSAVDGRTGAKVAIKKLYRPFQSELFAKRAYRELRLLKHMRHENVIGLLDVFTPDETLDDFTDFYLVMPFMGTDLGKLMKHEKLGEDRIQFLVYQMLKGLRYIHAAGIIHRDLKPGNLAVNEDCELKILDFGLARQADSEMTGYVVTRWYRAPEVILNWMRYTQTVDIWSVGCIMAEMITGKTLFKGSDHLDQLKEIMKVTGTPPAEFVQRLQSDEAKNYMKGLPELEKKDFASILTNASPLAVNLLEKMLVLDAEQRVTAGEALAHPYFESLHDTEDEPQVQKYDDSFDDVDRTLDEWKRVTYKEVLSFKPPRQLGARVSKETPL

[11] = target: Mitogen-activated protein kinase 11 (Homo sapiens) (UniProt Q15759); assay: Inhibition of p38beta2 at 10 uM
Mitogen-activated protein kinase 11 (Homo sapiens), sequence (Q15759 whole entry): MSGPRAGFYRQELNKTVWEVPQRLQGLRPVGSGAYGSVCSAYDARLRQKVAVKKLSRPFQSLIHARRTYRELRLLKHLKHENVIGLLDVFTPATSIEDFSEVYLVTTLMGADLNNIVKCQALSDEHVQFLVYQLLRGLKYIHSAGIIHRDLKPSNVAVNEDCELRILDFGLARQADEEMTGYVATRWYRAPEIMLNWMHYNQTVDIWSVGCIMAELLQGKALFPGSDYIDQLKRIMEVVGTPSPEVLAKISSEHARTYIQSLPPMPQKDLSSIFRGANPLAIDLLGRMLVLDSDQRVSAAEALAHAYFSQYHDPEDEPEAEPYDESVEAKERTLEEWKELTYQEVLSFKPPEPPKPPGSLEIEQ

Ephrin type-A receptor 3 = target: T3, Ephrin type-A receptor 3 (Homo sapiens, UniProt P29320); assay: Inhibition of Hek
T3 sequence (P29320 whole entry): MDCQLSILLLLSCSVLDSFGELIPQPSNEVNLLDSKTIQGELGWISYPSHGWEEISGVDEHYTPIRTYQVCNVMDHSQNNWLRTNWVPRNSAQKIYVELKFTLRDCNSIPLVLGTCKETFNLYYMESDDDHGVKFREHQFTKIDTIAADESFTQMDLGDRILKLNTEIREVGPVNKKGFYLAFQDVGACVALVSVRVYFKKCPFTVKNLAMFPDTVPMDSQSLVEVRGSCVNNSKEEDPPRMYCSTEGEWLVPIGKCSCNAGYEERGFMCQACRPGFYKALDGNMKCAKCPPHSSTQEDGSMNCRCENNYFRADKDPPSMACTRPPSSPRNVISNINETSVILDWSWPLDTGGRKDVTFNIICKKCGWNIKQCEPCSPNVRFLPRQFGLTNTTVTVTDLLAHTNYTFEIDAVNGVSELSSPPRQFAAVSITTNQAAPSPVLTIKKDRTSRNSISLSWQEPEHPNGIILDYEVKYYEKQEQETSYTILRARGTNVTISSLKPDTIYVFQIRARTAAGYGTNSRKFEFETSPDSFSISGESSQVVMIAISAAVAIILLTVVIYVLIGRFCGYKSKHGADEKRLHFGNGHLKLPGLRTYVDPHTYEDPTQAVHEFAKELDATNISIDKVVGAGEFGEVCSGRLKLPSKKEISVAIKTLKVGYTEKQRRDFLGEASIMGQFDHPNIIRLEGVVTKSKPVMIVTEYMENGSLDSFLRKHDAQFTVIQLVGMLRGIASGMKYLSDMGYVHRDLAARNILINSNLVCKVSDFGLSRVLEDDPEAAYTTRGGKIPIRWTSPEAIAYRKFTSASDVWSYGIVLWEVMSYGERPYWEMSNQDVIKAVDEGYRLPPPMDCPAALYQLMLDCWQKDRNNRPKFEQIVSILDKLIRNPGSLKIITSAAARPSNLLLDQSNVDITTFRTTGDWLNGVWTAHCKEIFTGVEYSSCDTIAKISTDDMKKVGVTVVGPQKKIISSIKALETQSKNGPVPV

[12] = target: T4, Mitogen-activated protein kinase 13 (Homo sapiens) (UniProt O15264); assay: Inhibition of p38delta at 10 uM
T4 sequence (whole entry): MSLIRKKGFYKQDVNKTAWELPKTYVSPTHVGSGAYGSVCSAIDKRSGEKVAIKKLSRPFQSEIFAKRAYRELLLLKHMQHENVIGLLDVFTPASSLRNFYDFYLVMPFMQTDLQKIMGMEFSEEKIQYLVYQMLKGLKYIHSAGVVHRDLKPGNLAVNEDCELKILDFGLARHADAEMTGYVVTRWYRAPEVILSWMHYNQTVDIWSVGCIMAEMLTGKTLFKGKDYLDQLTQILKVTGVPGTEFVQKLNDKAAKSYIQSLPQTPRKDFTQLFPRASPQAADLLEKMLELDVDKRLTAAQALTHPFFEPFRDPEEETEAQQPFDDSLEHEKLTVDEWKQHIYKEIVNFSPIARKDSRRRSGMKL

Platelet-derived growth factor receptor alpha, sequence (P16234 whole entry): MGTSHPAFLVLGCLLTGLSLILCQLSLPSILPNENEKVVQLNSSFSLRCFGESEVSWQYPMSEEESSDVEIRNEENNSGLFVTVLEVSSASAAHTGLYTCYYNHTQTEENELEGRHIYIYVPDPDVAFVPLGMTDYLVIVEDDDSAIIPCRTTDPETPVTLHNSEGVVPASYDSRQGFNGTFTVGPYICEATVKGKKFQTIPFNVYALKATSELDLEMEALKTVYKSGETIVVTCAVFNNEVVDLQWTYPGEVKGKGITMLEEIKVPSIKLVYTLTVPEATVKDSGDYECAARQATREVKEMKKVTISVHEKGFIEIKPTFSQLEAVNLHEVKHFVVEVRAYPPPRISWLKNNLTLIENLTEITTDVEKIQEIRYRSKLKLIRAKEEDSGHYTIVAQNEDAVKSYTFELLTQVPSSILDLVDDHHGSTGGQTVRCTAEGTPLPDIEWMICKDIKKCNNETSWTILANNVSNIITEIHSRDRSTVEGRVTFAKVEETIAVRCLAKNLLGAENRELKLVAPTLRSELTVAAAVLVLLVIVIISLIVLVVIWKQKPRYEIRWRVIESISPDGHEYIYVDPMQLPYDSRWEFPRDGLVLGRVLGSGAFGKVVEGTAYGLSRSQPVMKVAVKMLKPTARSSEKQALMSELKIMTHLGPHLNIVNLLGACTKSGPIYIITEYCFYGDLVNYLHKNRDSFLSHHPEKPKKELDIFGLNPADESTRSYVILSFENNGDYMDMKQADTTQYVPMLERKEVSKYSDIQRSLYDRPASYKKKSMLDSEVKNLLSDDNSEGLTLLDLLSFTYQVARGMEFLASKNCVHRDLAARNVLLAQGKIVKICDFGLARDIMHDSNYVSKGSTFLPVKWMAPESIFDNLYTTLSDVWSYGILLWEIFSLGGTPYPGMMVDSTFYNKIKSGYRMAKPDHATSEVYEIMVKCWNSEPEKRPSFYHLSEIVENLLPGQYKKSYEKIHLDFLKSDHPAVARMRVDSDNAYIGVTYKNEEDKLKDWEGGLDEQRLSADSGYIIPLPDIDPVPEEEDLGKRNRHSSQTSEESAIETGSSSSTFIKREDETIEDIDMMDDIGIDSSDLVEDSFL

IC50 [1] [µM] | Activity [2] | Activity [3] | Activity [4] | IC50 [5] [µM] | Activity [6] | IC50 [7] [µM] | Activity [8] | IC50 (Ephrin type-A receptor 2) [µM] | IC50 [9] [µM] | Activity [10] | Activity [11] | IC50 (Ephrin type-A receptor 3) [µM] | Activity [12] | SMILES
> 7 | inactive | inactive | inactive | > 7 | inactive | > 7 | inactive | > 7 | 13.3 | inactive | inactive | > 7 | inactive | CCCc1cc(N2CCCC(O)C2)nc2sc(C(N)=O)c(N)c12 (stereo not given)
0.3 | inactive | inactive | inactive | > 7 | inactive | > 7 | inactive | > 7 | 3.4 | inactive | inactive | 8 | inactive | CCCc1cc(N2CCNCC2)nc2sc(C(N)=O)c(N)c12
> 7 | inactive | inactive | inactive | – | inactive | > 7 | inactive | > 7 | 11.2 | inactive | inactive | 9 | inactive | CCCc1cc(N2CCC(O)CC2)nc2sc(C(N)=O)c(N)c12
> 7 | inactive | inactive | inactive | > 7 | inactive | > 7 | inactive | > 7 | 0.09 | inactive | inactive | 7 | inactive | CCCc1cc(N2CCC(N)CC2)nc2sc(C(N)=O)c(N)c12
